We go through two compounds from paper PMC3735840 (ACS chemical biology, 2013).

The term Kd denotes a measure of binding affinity in units of concentration. A word on the Km: it is the substrate concentration at which the rate is half of its maximum.

The target in data set [1] is enzyme I (EI) (Escherichia coli, UniProt P08839). The experiment in a line: NMR chemical shift titration. The format is binding.
Data set [2] has as its target enzyme I (EI) (Escherichia coli, UniProt P08839, R465A). Put plainly: NMR chemical shift titration. In kind it is binding.
For a further data set, the system named is C=C(OP(=O)(O)O)C(=O)O. Put plainly: steady-state enzyme kinetics of the R465A EIC mutant with PEP. The format is biochemical, Escherichia coli. As to conditions: Mg2+ active site of the C-terminal domain.

As to `O=C(O)CCC(=O)C(=O)O` [αKG, α-ketoglutarate], the Kd at enzyme I (EI) [1] is about 2.2 mM; at enzyme I (EI) [2], about 6.7 mM.

With “enzyme I (EI) (Escherichia coli K-12; R465A)”, the Km in the data set with C=C(OP(=O)(O)O)C(=O)O was found to be 1600 ± 400 µM.
